Measurements published in patent US5912258A, “Thiadiazoleamide derivative and anti-ulcer drug” (Shiseido Co., Ltd., priority 1998, dated 1999).

Legend:
[1] = test system: isolated gastric fundic gland; experiment: CAP: Acid Secretion Inhibition Test in vitro ([^14 C]-aminopyrine uptake); type: cell-based, male Japanese White rabbit; conditions: Oryctolagus cuniculus, rabbit isolated gastric fundic gland, 10^-5 M, histamine 10^-5 M; read-out: CAP: Acid secretion inhibitory rate
Experimental: CAP: Acid Secretion Inhibition Test in vitro (i) Meaning The acid secretion inhibitory activity in a cell level is studied. It can also be used for studying the mechanism of the effect. (ii) Method (ii)-(a) Preparation of isolated gastric gland suspension First, an isolated gastric fundic gland sample was prepared. Namely, a male Japanese White rabbit (2.5 to 3 kg) was anesthetized to death with Nembutal™ and then the abdomen was incised. Immediately thereafter, the stomach was removed and, after its pyloric and cardiac antrum were severed, incised along its greater curvature into two sheets. The gastric contents adhering to the mucosal surface was washed out with ice-cooled PBS (-) and then carefully washed therein. The gastric wall was spread on a cork board with its mucosal surface facing up and the feed and mucus thereon were completely removed with sterile gauze. The mucosa was separated therefrom by a spatula and then collected in ice-cooled PBS (-). After being washed twice with PBS (-), the mucosa was minced into 2-3 mm^3 pieces by scissors. These pieces were further washed twice with a nutrient solution. The nutrient solution comprises 132.4 mM of NaCl, 5.4 mM of KCl, 5 mM of Na2 HPO4 ·12H2 O, 1 mM of NaH2 PO4 ·2H2 O, 1.2 mM of MgSO4, 1 mM of CaCl2, 25 mM of HEPES, 2 mg/ml of glucose, and 1 mg/ml of BSA. Into 70 ml of the nutrient solution containing 1 mg/ml of collagenase, minced mucosal pieces were dispersed and intensely stirred in a conical flask with a stirrer at 37° C. for 40 to 60 minutes. […] The nutrient solution was added to the reaction solution so as to attain the total amount of about 200 ml. After being filtered through a mesh, the suspension was divisionally introduced into 50 ml centrifuge tubes and left for 15 minutes such that gastric fundic gland was deposited. The supernatant was repeatedly removed by an aspirator, dispersed in the nutrient solution, and then left such that the gastric fundic gland was washed three times. At this time, without using a pipette, the suspension was alternately introduced into two centrifuge tubes so as to effect dispersion. The number of cells was counted under microscope and adjusted to 1.6×10^6 cells/ml. (ii)-(b) [^14 C]-aminopyrine uptake test Then [^14 C]-aminopyrine uptake test was performed. After an Eppendorf tube was weighed, 10 μl (final concentration: 10^-5 M) of histamine dissolved in the above-mentioned nutrient solution, 10 μl (final concentration: 10 ^-5 M) of the test compound dissolved in DMSO, and 10 μl (final concentration: 0.05 μCi/ml) of [^14 C]-aminopyrine diluted with the nutrient solution were introduced therein and then 970 μl of the isolated gastric fundic gland suspension prepared above were added thereto. Subsequently, this mixture was shaken at 37° C. for 40 minutes at 125 cycles/minute. After being centrifuged for 30 minutes 200 μl of its supernatant was collected into a mini-vial, while the rest was removed by an aspirator. The gland pellet was completely dried as the tube with its lid being opened was kept for one night in a drying oven at 80° C. and then the weight was determined at room temperature. Then 100 μl of 1N KOH was added thereto an the tube with its lid being closed was treated at 60° C. for 1 to 2 hours so as to dissolve the pellet. Then, the contents thereof were transferred to a mini-vial. Into the mini-vial containing the supernatant or gland pellet, 4 ml of Atomlite™ was added and then the radioactivity was measured by a liquid scintillation counter. Here, after the radioactivity of the gland pellet was corrected by using a sample in which 20 mM of NaSCN was added so as to cancel the hydrogen ion concentration gradient, the integration ratio of aminopyrine specifically trapped by the gland pellet was calculated. This experiment was performed in duplicate. (ii)-(c) Calculation of the accumulation rate of aminopyrine Here, its principle will be briefly explained. […]

gastric mucosa = experiment: PD: Gastric Mucosal Integrity Test (gastric mucosal potential difference); type: in vivo, Male Crj:SD rats; set-up: key: 5: Same as the control with no recognizable damage at all.; 4: Though a slight PD-decreasing tendency suggesting a slight possibility of mucosal damage is found, there is no problem.; 3: Though a weak decrease in PD and a possibility of a weak mucosal damage is recognized, there is no substantial problem.; 2: Medium degree of decrease in PD is found and a mucosal damage is recognized.; 1: Heavy degree of decrease in PD is found and a remarkable mucosal damage is recognized; conditions: rat, 100 mg/kg into the chamber, 60 minutes
Experimental: PD: Gastric Mucosal Integrity Test
In this case, since the sample compound has a necrotizing effect, it is inappropriate as an anti-ulcer medicament.
Therefore, the gastric mucosal potential difference (PD), which reflects the integrity of the gastric mucosa, is measured so as to confirm that the sample compound has no damaging effect on gastric mucosa, which is toxicity at gastric mucosal level.
Male Crj:SD rats (7 to 8-week-old) were fasted overnight, but allowed free access to water, and then, under urethane anesthesia (1.25 g/kg, i.p.), fixed to a cork board on its back. The abdomen of each rat was incised, and a small incision was made in the forestomach. Then, the inside of the stomach was washed with physiological saline heated at 37° C. From the forestomach, along the greater curvature thereof, the stomach was incised without damaging blood vessels. After the height of the cork board was adjusted on a jack, the stomach was mounted on ex vivo chamber. The area of the gastric mucosa exposed to the inside of this chamber was 2.5 cm^2. The inside of the chamber was perfused with physiological saline warmed at 37° C. by micro tube pump. By using an agar bridge containing 3M KCl, the potential difference between the chamber and the abdominal cavity was measured by a PD meter. Here, the rectal temperature was measured to control the body temperature during the experiment. After the PD was sufficiently stabilized, the perfusate was stopped and then 100 mg/10 ml/kg of the sample compound dissolved or suspended in an aqueous solution of 0.5% sodium carboxymethylcellulose or 0.05% Tween 80 was administered into the chamber, while PD was recorded for 60 minutes. To a control, the vehicle was administered.
The change in PD during 60 minutes after the administration of 100 mg/kg of the sample compound was collectively studied and, with reference to the positive control, classified into 5 levels as follows:
5: Same as the control with no recognizable damage at all.
3: Though a weak decrease in PD and a possibility of a weak mucosal damage is recognized, there is no substantial problem.
2: Medium degree of decrease in PD is found and a mucosal damage is recognized.
1: Heavy degree of decrease in PD is found and a remarkable mucosal damage is recognized.

SMILES | inhibition at 10 µM [1] | PD: change in gastric mucosal potential difference (5 levels) (gastric mucosa)
CCN(CC)CCSc1nnc(NC(=O)c2ccc(C(C)C)cc2)s1 [Example 1, 2-(4-isopropylbenzoyl)amino-5-diethylaminoethylthio-1,3,4-thiadiazole] | 101% | 3
CC(C)c1ccc(C(=O)Nc2nnc(SCCN(C(C)C)C(C)C)s2)cc1 [Example 2, 2-(4-isopropylbenzoyl)amino-5-diisopropylaminoethylthio-1,3,4-thiadiazole] | 100% | 5
CCN(CC)CCSc1nnc(NC(=O)c2ccc(C(C)(C)C)cc2)s1 [Example 4, 2-(4-tert-butylbenzoyl)amino-5-diethylaminoethylthio-1,3,4-thiadiazole] | 100% | 3
CCN(CC)CCSc1nnc(NC(=O)c2ccc(OC/C=C(\C)CCC=C(C)C)cc2)s1 [Example 10, 2-(4-geranyloxybenzoyl)amino-5-diethylaminoethylthio-1,3,4-thiadiazole] | 100% | 5
CC(C)=CCC/C(C)=C/COc1ccc(C(=O)Nc2nnc(SCCN3CCCCC3)s2)cc1 [Example 12, 2-(4-geranyloxybenzoyl)amino-5-piperidinoethylthio-1,3,4-thiadiazole] | 99% | 5
CC(C)=CCC/C(C)=C/COc1ccc(C(=O)Nc2nnc(SCc3ccccn3)s2)cc1 [Example 14, 2-(4-geranyloxybenzoyl)amino-5-(2-pyridylmethyl)thio-1,3,4-thiadiazole] | 45% | 5
CCSc1nnc(NC(=O)c2ccc(OC/C=C(\C)CCC=C(C)C)cc2)s1 [Example 15, 2-(4-geranyloxybenzoyl)amino-5-ethylthio-1,3,4-thiadiazole] | 17% | 5
